Source: patent publication US20260265199A1, “CRYSTALLINE FORMS OF (R)-2-AMINO-5-(4-(2-(3,5-DIFLUOROPHENYL)-2-HYDROXYACETAMIDO)-2-METHYLPHENYL)-N-ISOPROPYLNICOTINAMIDE AND METHODS FOR USING THE SAME” (HIBERCELL, INC., priority 2023, published 2026)
Counter-ions that a name gives are not always drawn.

Assay: Phase 1a study: pharmacokinetics after oral BID dosing in subjects with advanced solid tumors
Format: in vivo, human
Design: Increase in mean: scale not given here
Procedure: This example describes a first in human, Phase 1a, multi-center, open-label study to establish the maximum tolerated dose (MTD) and evaluate the safety and tolerability of oral dosing of Form A of the hemi-fumarate salt of the compound of formula (I) (Example 11) in a dose-escalating fashion. Form A of the hemi-fumarate salt was orally administered BID every day with food or within 30 minutes of completing a meal, starting at 25 mg, with doses escalating to 50, 100, 200, 400, 600, and 900 mg BID as safety allows for each 3-week treatment cycle.
Up to 36 qualified subjects at 3 to 5 US sites, who have specific tumor types of renal cell carcinoma (RCC), gastric cancer (GC), metastatic breast cancer (MBC), small cell lung cancer (SCLC), and other solid tumors (e.g., non-small cell lung cancer, colorectal cancer, carcinoma of unknown primary) with the exception of rapidly progressing neoplasms (e.g., pancreatic cancer, glioblastoma, hepatocellular carcinoma) received Form A of the hemi-fumarate salt. Every effort was made to ensure approximately 50% of all subjects enrolled were subjects with RCC and GC. The starting dose level was 25 mg twice daily (BID), escalating to 50, 100, and 200 mg BID as safety allows, following the Bayesian Optimal Interval (BOIN) design. The safety monitoring committee (SMC) evaluated the dose-limiting toxicities (DLTs) and cumulative safety and PK data at the end of each cohort. Based on the SMC recommendations after a comprehensive review of PK and safety data for 200 mg BID dose, higher dose levels were evaluated, starting with 400 mg BID. The dose escalated to 600 mg and then 900 mg following the BOIN design starting with 1 subject at each escalated dose, until the MTD was reached or the sponsor or SMC declares the dose most appropriate for clinical development. This Phase 1a will be expanded into a Phase 1b/2a study through a protocol amendment and will then assess the dose and tumor type(s) selected in Phase 1a as the most appropriate for further clinical development. Subjects were dosed until unacceptable toxicity, disease progression per immune-related Response Evaluation Criteria in Solid Tumors (iRECIST), subject withdrawal, any other administrative reasons, or after 2 years of treatment, whichever occurs first. Efficacy was assessed via Response Evaluation Criteria in Solid Tumors 1.1 (RECIST 1.1); computed tomography (CT) scans were conducted every 6 weeks. Safety, including occurrence of dose-limiting toxicities (DLTs), pharmacokinetics (PK), and biomarker parameters were also assessed.
Form A of the hemi-fumarate salt was orally administered BID with food or within 30 minutes of completing a meal, starting at 25 mg, with doses escalating to 50, 100, 200, 400, 600 and 900 mg BID as safety allowed. Up to 24 subjects were enrolled to ensure 12 subjects completed the study at the estimated MTD of Form A of the hemi-fumarate salt. Dosing occurred in 3-week cycles. Subjects spent Cycle 1/Day 1 (C1D1) in the clinic followed by an overnight stay for safety monitoring and PK sampling. Subjects were hospitalized for administration of first 3 doses: CID1 am and pm doses, and Cycle 1/Day 2 (C1D2) am dose; on Days 8, 15, and 21 the am dose was taken in the clinic after the planned PK samples. All other doses were self administered at home.
Results of Cohorts 1 to 6 the study are detailed in Tables 47-50 below.

[1] = 25 mg single oral dose, Cycle 1 Day 1, geometric mean, N = 3
[2] = 25 mg twice daily oral, Cycle 1 Day 21, geometric mean, N = 3
[3] = 50 mg single oral dose, Cycle 1 Day 1, geometric mean, N = 3
[4] = 50 mg twice daily oral, Cycle 1 Day 21, geometric mean, N = 3
[5] = 100 mg single oral dose, Cycle 1 Day 1, geometric mean, N = 4
[6] = 100 mg twice daily oral, Cycle 1 Day 21, geometric mean, N = 3
[7] = 200 mg single oral dose, Cycle 1 Day 1, geometric mean, N = 5
[8] = 200 mg twice daily oral, Cycle 1 Day 21, geometric mean, N = 4
[9] = 300 mg single oral dose, Cycle 1 Day 1, geometric mean, N = 4
[10] = 300 mg twice daily oral, Cycle 1 Day 21, point estimate, N = 1
[11] = 400 mg single oral dose, Cycle 1 Day 1, geometric mean, N = 3
[12] = 400 mg twice daily oral, Cycle 1 Day 21, geometric mean, N = 2
[13] = 600 mg single oral dose, Cycle 1 Day 1, point estimate, N = 1
[14] = 600 mg twice daily oral, Cycle 1 Day 21, point estimate, N = 1

## Cc1cc(NC(=O)[C@H](O)c2cc(F)cc(F)c2)ccc1-c1cnc(N)c(C(=O)NC(C)C)c1 [Form A of the hemi-fumarate salt, (R)-2-amino-5-(4-(2-(3,5-difluorophenyl)-2-hydroxyacetamido)-2-methylphenyl)-N-isopropylnicotinamide]
[1]
  % AUCextrap: 46.8%
  CL/F: 11.4 L/h
  DAUC0-12: 34.0 ng·h/mL/mg
  DAUC0-last: 34.0 ng·h/mL/mg
  DCmax: 4.79 ng/mL/mg
25 mg single oral dose, Cycle 1 Day 1, median, N = 3
  tlast: 12.00 h
[2]
  ARAUC: 4.84
  CL/F: 6.08 L/h
  Ctrough: 359 ng/mL
  DAUC0-last: 164 ng·h/mL/mg
  DAUC0-τ: 164 ng·h/mL/mg
  DCmax: 21.5 ng/mL/mg
[3]
  % AUCextrap: 51.8%
  CL/F: 8.85 L/h
  DAUC0-12: 41.8 ng·h/mL/mg
  DAUC0-last: 41.8 ng·h/mL/mg
  DCmax: 4.87 ng/mL/mg
50 mg single oral dose, Cycle 1 Day 1, median, N = 3
  tlast: 12.00 h
[4]
  ARAUC: 4.34
  CL/F: 5.51 L/h
  Ctrough: 780 ng/mL
  DAUC0-last: 181 ng·h/mL/mg
  DAUC0-τ: 181 ng·h/mL/mg
  DCmax: 19.6 ng/mL/mg
50 mg vs preceding dose level (25 mg), single oral dose, Cycle 1 Day 1
  Increase in mean: 2.46
50 mg vs preceding dose level (25 mg), twice daily oral, Cycle 1 Day 21
  Increase in mean: 2.21
[5]
  DAUC0-12: 28.0 ng·h/mL/mg
  DAUC0-last: 19.3 ng·h/mL/mg
  DCmax: 3.80 ng/mL/mg
100 mg single oral dose, Cycle 1 Day 1, median, N = 4
  tlast: 12.00 h
[6]
  ARAUC: 4.19
  CL/F: 8.53 L/h
  Ctrough: 777 ng/mL
  DAUC0-last: 117 ng·h/mL/mg
  DAUC0-τ: 117 ng·h/mL/mg
  DCmax: 13.1 ng/mL/mg
100 mg vs preceding dose level (50 mg), single oral dose, Cycle 1 Day 1
  Increase in mean: 1.34
100 mg vs preceding dose level (50 mg), twice daily oral, Cycle 1 Day 21
  Increase in mean: 1.29
[7]
  % AUCextrap: 58.7%
  CL/F: 11.1 L/h
  DAUC0-12: 29.0 ng·h/mL/mg
  DAUC0-last: 29.0 ng·h/mL/mg
  DCmax: 4.19 ng/mL/mg
200 mg single oral dose, Cycle 1 Day 1, median, N = 5
  tlast: 12.00 h
[8]
  ARAUC: 4.90
  CL/F: 7.36 L/h
  Ctrough: 1860 ng/mL
  DAUC0-last: 136 ng·h/mL/mg
  DAUC0-τ: 136 ng·h/mL/mg
  DCmax: 14.9 ng/mL/mg
200 mg vs preceding dose level (100 mg), single oral dose, Cycle 1 Day 1
  Increase in mean: 2.07
200 mg vs preceding dose level (100 mg), twice daily oral, Cycle 1 Day 21
  Increase in mean: 2.32
[9]
  % AUCextrap: 30.5%
  CL/F: 62.4 L/h
  DAUC0-12: 28.7 ng·h/mL/mg
  DAUC0-last: 28.7 ng·h/mL/mg
  DCmax: 3.80 ng/mL/mg
300 mg single oral dose, Cycle 1 Day 1, median, N = 4
  tlast: 12.00 h
[10]
  ARAUC: 2.87
  CL/F: 10.5 L/h
  Ctrough: 1770 ng/mL
  DAUC0-last: 94.8 ng·h/mL/mg
  DAUC0-τ: 94.8 ng·h/mL/mg
  DCmax: 10.1 ng/mL/mg
300 mg vs preceding dose level (200 mg), single oral dose, Cycle 1 Day 1
  Increase in mean: 1.48
300 mg vs preceding dose level (200 mg), twice daily oral, Cycle 1 Day 21
  Increase in mean: 1.05
[11]
  % AUCextrap: 33.6%
  CL/F: 24.5 L/h
  DAUC0-12: 9.58 ng·h/mL/mg
  DAUC0-last: 9.58 ng·h/mL/mg
  DCmax: 1.62 ng/mL/mg
400 mg single oral dose, Cycle 1 Day 1, min-max, N = 3
  tlast: (12.00-12.00) h
[12]
  ARAUC: 5.15
  CL/F: 7.82 L/h
  Ctrough: 3060 ng/mL
  DAUC0-last: 77.0 ng·h/mL/mg
  DAUC0-τ: 128 ng·h/mL/mg
  DCmax: 9.20 ng/mL/mg
400 mg vs preceding dose level (300 mg), single oral dose, Cycle 1 Day 1
  Increase in mean: 0.44
400 mg vs preceding dose level (300 mg), twice daily oral, Cycle 1 Day 21
  Increase in mean: 1.80
[13]
  DAUC0-12: 19.4 ng·h/mL/mg
  DAUC0-last: 19.4 ng·h/mL/mg
  DCmax: 2.43 ng/mL/mg
  tlast: 12.00 h
[14]
  ARAUC: 5.22
  CL/F: 9.87 L/h
  Ctrough: 5680 ng/mL
  DAUC0-last: 101 ng·h/mL/mg
  DAUC0-τ: 101 ng·h/mL/mg
  DCmax: 9.98 ng/mL/mg
